Experimental data from patent publication US7943137B2, “FPRL1 ligands and use thereof” (Takeda Pharmaceutical Company Limited, priority 2002, dated 2011).
Where a SMILES comes first, the peptide text is derived from it. Where no end group is shown, it is not given here. The star is where a group is joined. For = O=C*

Tests used:
[1] = system: FPRL1-GFP fusion protein-expressing CHO cells; test: Cell migration stimulating activity to FPRL1-GFP fusion protein-expressing CHO cells; format: cell-based, human; conditions: chemotaxis chamber, 37° C., 4 hours, FIG. 24
Description: Using FPRL1-GFP fusion protein-expressing CHO cells, which are described in Example 18, a cell migration activity of the above cells by stimulation using formylated peptide was investigated.
The 96-well disposable chemotaxis chamber (ChemoTx-96, Neuro Probe) was used for assay. Firstly, to bottom well of the chamber, a test sample diluted with DMEM (Invitrogen) containing 0.5% BSA was added. Then, a polycarbonate filter, which is precoated with 10 μg/ml bovine fibronectin (Yagai) on both sides, was fixed on the chamber, and contacted with the test sample. Next, suspension for FPRL1-GFP fusion protein-expressing CHO cells was put onto the filter at 96-well site as a droplet. The chamber was covered, and cultured at 37° C. for 4 hours under conditions of 5% CO2. The cell suspension was prepared as follows: the aforementioned CHO cells at growth phase, which had been precultured in 150 cm^2 flask for culture, were peal off using trypsin/EDTA; the cell suspension obtained was centrifuged to get cell precipitation; and after washing with PBS once, the cells were resuspended in DMEM medium containing 0.5% BSA at the concentration of 3.6×10^6 cells/ml. […] For this filter, absorbance at 595 nm was measured using microplate reader.

FPRL1-GFP fusion protein = test: Intracellular transition (internalization) of FPRL1-GFP fusion protein expressed in CHO cells; format: cell-based, human; conditions: 37° C., one hour, Cellomics ArrayScan
Description: CHO cell line, in which a protein, wherein GFP (Green Fluorescent Protein) is fused to the C-terminus of human FPRL1, is stably expressed, was established using an expression plasmid for animal cells by publicly known method. For assay of intracellular transition of the protein, the cells at growth phase was seeded at the concentration of 40000 cells/well on 96-well plate (Packard, View-Plate™-96, Black), and cultured for overnight at 37° C. under 5% CO2. Firstly, the cells into the well were washed with assay buffer (HBSS (GibcoBRL) supplemented with 0.1% bovine serum albumin (BSA)). Then, 100 μl of the assay buffer containing a test sample were added to the well and incubated at 37° C. under 5% CO2 for one hour. Subsequently, 100 μl/well of cell fixation solution (PBS containing 4% paraformaldehyde (Ca/Mg free)) were added to the well and stood at room temperature for 30 minutes. After removing the cell fixation solution and washing the cells with Ca/Mg free PBS, a labeling solution (3.13 μg/ml of wheat germ aggulutinin (Molecular Probe, W-849) and 5 μg/ml of Hoechst-containing Ca/Mg free PBS) was added (50 μl/well) and stood at room temperature for 20 minutes. After removing the labeling solution, the cells were washed with Ca/Mg free PBS (200 μl/well) to replace the same (200 μl/well). […]

human FPRL1 = biological target: T1, human FPRL1 (Homo sapiens, UniProt P25090); test: Inhibiting activity for intracellular cAMP production in human FPRL1-expressing CHO cells; format: cell-based; conditions: comparison of purified ligand and chemical preparation, FIG. 14
T1 construct: expressed in transfected cells; host or cells: CHO cells (clone No. 8)
T1 sequence (P25090 1-351): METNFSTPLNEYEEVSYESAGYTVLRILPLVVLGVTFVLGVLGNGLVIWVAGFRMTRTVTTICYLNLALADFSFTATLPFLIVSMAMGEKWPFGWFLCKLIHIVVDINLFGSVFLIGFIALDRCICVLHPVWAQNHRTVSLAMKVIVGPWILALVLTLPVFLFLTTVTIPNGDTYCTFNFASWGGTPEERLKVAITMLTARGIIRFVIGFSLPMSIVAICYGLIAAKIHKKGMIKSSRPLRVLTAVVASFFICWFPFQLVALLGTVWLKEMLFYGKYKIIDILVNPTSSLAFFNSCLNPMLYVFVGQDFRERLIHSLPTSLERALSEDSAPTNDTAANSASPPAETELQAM
Excerpt: The term “Peptide (nM)” on horizontal axis and “Inhibition (5)” on vertical axis means a concentration of peptide (nM) and an inhibiting activity for intracellular cAMP production (Inhibition (%)), respectively. Closed triangle represents an activity of the intrinsic FPRL1 ligand P1, which has been purified in Example 7. It is derived from fr. 24-25 of the final purified preparation uRPC C2/C18 SC2.1/10. The concentration for peptide is deduced from the absorbance at 215 nm of final purification chromatogram. Closed circle indicates an activity of 16 amino acid peptide containing N-terminal fifteen amino acids of porcine cytochrome B, at which synthetic N-terminus is formylated (formyl-MTNIRKSHPLMKIINN).
Activity of porcine intrinsic FPRL1 ligand P1, which was purified in Example 7, and activity of 16 amino acid-peptide (formyl-MTNIRKSHPLMKIINN, SEQ ID NO: 18), comprising 15 amino acids at N-terminus of N-terminally formylated porcine cytochrome B, wherein the sequence was deduced from structure analysis, were compared using an inhibiting activity for intracellular cAMP production in human […] CHO cells as an index (FIG. 14).

| Compound | cell migration stimulating activity (absorbance at 595 nm) [1] | intracellular transition of FPRL1-GFP protein (MemCyto Above Threshold) (FPRL1-GFP fusion protein) | inhibiting activity for intracellular cAMP production (human FPRL1) |
| --- | --- | --- | --- |
| CSCC[C@H](NC=O)C(=O)N[C@@H](Cc1ccccc1)C(=O)N[C@H](C(=O)N[C@@H](CC(N)=O)C(=O)N[C@@H](CCCNC(=N)N)C(=O)N[C@@H](Cc1c[nH]c2ccccc12)C(=O)N[C@@H](CC(C)C)C(=O)N[C@@H](Cc1ccc(O)cc1)C(=O)N[C@@H](CO)C(=O)N[C@H](C(=O)N[C@@H](CC(N)=O)C(=O)N[C@@H](Cc1c[nH]cn1)C(=O)N[C@@H](CCCCN)C(=O)O)[C@@H](C)O)C(C)C [pfCYOX-1(1-13)] (For-MFVNRWLYSTNHK-OH; C-terminus assumed) | bell-shaped dose-dependent cell migration stimulating activity | concentration-dependent transition of FPRL1-GFP protein from cell membrane to cytoplasm |  |
| formyl-MTNIRKSHPLMKIINN (For-MTNIRKSHPLMKIINN) [16 amino acid-peptide comprising 15 amino acids at N-terminus of N-terminally formylated porcine cytochrome B] |  |  | both activities are equivalent |
| CSCC[C@H](NC=O)C(=O)N[C@@H](Cc1ccccc1)C(=O)N[C@@H](C)C(=O)N[C@@H](CC(=O)O)C(=O)N[C@@H](CCCNC(=N)N)C(=O)N[C@@H](Cc1c[nH]c2ccccc12)C(=O)N[C@@H](CC(C)C)C(=O)N[C@@H](Cc1ccccc1)C(=O)N[C@@H](CO)C(=O)N[C@H](C(=O)N[C@@H](CC(N)=O)C(=O)N[C@@H](Cc1c[nH]cn1)C(=O)N[C@@H](CCCCN)C(=O)O)[C@@H](C)O [hfCYOX-1(1-13)] (For-MFADRWLFSTNHK-OH; C-terminus assumed) | bell-shaped dose-dependent cell migration stimulating activity | concentration-dependent transition of FPRL1-GFP protein from cell membrane to cytoplasm |  |
| CHO-Met-Thr-Asn-Ile-Arg-Lys-Ser-His-Pro-Leu-Met-Lys-Ile-Ile-Asn ({CHO}-MTNIRKSHPLMKIIN) [porcine intrinsic FPRL1 ligand P1, purified from porcine stomach; N-terminal peptide of N-formylated porcine cytochrome b] |  |  | both activities are equivalent |
